In the NIST ThermoML archive (doi:10.1021/je050062a):

Experiments:
[1] = refractive index (Na D-line) (dimensionless); conditions: 298.15 K; 101.33 kPa; Liquid; Standard Abbe refractometry
[2] = Liquid; for mass density: 298.15 K, 101.33 kPa

CCCC(C)C [2-methylpentane]
Conditions | mass density [kg/m3] | refractive index
[1] | – | 1.36877
[2] | 648.46 | –

Conditions | vapor or sublimation pressure [kPa]
[2], 330 K | 90.76

CC(C)C(C)O (configuration not stated) [3-methyl-2-butanol]
Conditions | mass density [kg/m3] | refractive index
[1] | – | 1.407
[2] | 813.42 | –

[2]
Conditions | vapor or sublimation pressure [kPa]
323.61 K | 6.527
329.8 K | 9.28
330 K | 9.35
333.31 K | 11.16
336.52 K | 13.19
340 K | 15.7
340.67 K | 16.23
346.13 K | 21.09
354.08 K | 30.24
360.75 K | 40.25
365.98 K | 49.79
370.47 K | 59.38
374.44 K | 69.02
380.99 K | 87.65
382.59 K | 92.61

CC(=O)C(C)C [3-methyl-2-butanone]
Conditions | mass density [kg/m3] | refractive index
[1] | – | 1.3862
[2] | 799.55 | –

[2]
Conditions | vapor or sublimation pressure [kPa]
310.45 K | 12.1
318.08 K | 16.98
324.32 K | 22.06
328.85 K | 26.46
330 K | 27.69
333.49 K | 31.7
337.18 K | 36.45
340 K | 40.45
340.26 K | 40.84
346.23 K | 50.54
348.87 K | 55.4
353.57 K | 64.95
357.9 K | 74.9
361.86 K | 84.97
365.36 K | 94.78
